Test results reported in patent US6133319A, “IL-8 receptor antagonists” (SmithKline Beecham Corporation, priority 1999, dated 2000).

Molecular target: T1, recombinant human IL-8 type b receptor (IL-8 Rb, Type II, permissive receptor) (Homo sapiens, UniProt P25025)
T1 sequence (P25025 1-360): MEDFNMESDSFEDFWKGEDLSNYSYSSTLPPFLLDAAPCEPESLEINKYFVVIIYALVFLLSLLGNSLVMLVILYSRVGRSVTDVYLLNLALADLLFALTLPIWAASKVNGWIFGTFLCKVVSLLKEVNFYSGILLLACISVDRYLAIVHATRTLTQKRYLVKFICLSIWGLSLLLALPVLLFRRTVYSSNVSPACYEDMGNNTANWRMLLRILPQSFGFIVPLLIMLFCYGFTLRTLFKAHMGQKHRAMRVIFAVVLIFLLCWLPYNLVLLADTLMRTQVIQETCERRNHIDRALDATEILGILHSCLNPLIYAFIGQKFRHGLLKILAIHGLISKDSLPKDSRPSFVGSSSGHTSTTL
Assay: Receptor binding assay, [125I] IL-8 binding to IL-8 Rb (Type II, permissive) receptor membranes
Conditions: recombinant IL-8 Rb (Type II) CHO membranes
Experimental: The IL-8, and Gro-a chemokine inhibitiory effects of compounds of the present invention were determined by the following in vitro assay:
[^125 I] IL-8 (human recombinant) was obtained from Amersham Corp., Arlington Heights, Ill., with specific activity 2000 Ci/mmol. Gro-a was obtained from NEN- New England Nuclear. All other chemicals were of analytical grade. High levels of recombinant human IL-8 type a and b receptors were individually expressed in Chinese hamster ovary cells as described previously (Holmes, et al., Science, 1991, 253, 1278). The Chinese hamster ovary membranes were homogenized according to a previously described protocol (Haour, et al., J Biol Chem., 249 pp 2195-2205 (1974)). Except that the homogenization buffer was changed to 10 mM Tris-HCl, 1 mM MgS04, 0.5 mM EDTA (ethylene-diaminetetraacetic acid), 1 mM PMSF (a-toulenesulphonly flouride), 0.5 mg/L Leupeptin, pH 7.5. Membrane protein concentration was determined using Pierce Co. micro-assay kit using bovine serum albumin as a standard. All assays were performed in a 96-well micro plate format. Each reaction mixture contained ^125 I IL-8 (0.25 nM) or ^125 I Gro-a and 0.5 μg/mL of IL-8Ra or 1.0 μg/mL of IL-8Rb membranes in 20 mM Bis-Trispropane and 0.4 mM Tris HCl buffers, pH 8.0, containing 1.2 mM MgSO4, 0.1 mM EDTA, 25 mM NaCl and 0.03% CHAPS. In addition, drug or compound of interest was added which had been pre-dissolved in DMSO so as to reach a final concentration of between 0.01 nM and 100 uM. The assay was initiated by addition of ^125 I-IL-8. After 1 hour at room temperature the plate was harvested using a Tomtec 96-well harvester onto a glass fiber filtermat blocked with 1% polyethylenimine/0.5% BSA and washed 3 times with 25 mM NaCl, 10 mM TrisHCl, 1 mM MgSO4, 0.5 mM EDTA, 0.03% CHAPS, pH 7.4. The filter was then dried and counted on the Betaplate liquid scintillation counter. The recombinant IL-8 Ra, or Type I, receptor is also referred to herein as the non-permissive receptor and the recombinant IL-8 Rb, or Type II, receptor is referred to as the permissive receptor.

activity in the permissive models for IL-8 receptor inhibition (result in words)	Structure (SMILES)
inactive	CC(C)OCCNC(=O)Nc1ccc([N+](=O)[O-])cc1O [N-(ethylisopropylether)-N'-(2-hydroxy-4-nitro-phenyl)urea]
inactive	O=C(O)CCNC(=O)Nc1ccc([N+](=O)[O-])cc1O [N-(2-carboxyethyl)-N'-(2-hydroxy-4-nitrophenyl)urea]
inactive	N#Cc1ccc(NC(=O)N[C@@H]2CCCC[C@H]2OCc2ccccc2)c(NS(=O)(=O)c2ccccc2)c1 (relative stereo) [N-trans-(2-benzyloxycyclohexyl)-N'-((2-benzenesulfonylamino)4-cyanophenyl))urea]
inactive	CC(C)(COCc1ccccc1)NC(=O)Nc1ccc([N+](=O)[O-])cc1O [Example 6, N-(1,1-Dimethyl-2-benzoxyethyl)-N'-(2-hydroxy-4-nitrophenyl)urea]
